# Experimental data published in patent US5474988A, “5-phenylpyrrolo-1,4-benzoxazine and 5-phenylpyrrolo-1,4-benzothiazine compounds, process and intermediates for their production and pharmaceutical compositions containing them” (Kali-Chemie Pharma GmbH, priority 1993, dated 1995).
# System: cutaneous histamine induced anaphylactoid reactions
# Test: inhibition of the anaphylactoid cutaneous reaction induced by histamine
# Type: in vivo, Sprague-Dawley rats
# Details: Rattus norvegicus, po, 0.5 h; 2 × 10^-5 mole/kg p.o., one hour before histamine; assessed 30 minutes after provocation; read-out: Inhibitory action against cutaneous histamine induced anaphylactoid reactions in rats, % inhibition
# Description: 1. Determination of the inhibition of the anaphylactoid cutaneous reaction induced by histamine.
# The inhibition of the anaphylactoid cutaneous reaction induced by histamine was determined in Sprague-Dawley rats having body weights of 150-180 g.
# In order to determine the histamine-induced anaphylactoid skin reaction, 50 μl of a physiological saline solution containing 0.8 mg/ml of histamine were injected into the animals intradermally on one flank. Immediately afterward, a solution of 26.4 mg/kg of a blue dye (Evan's Blue) was administered i.v. to the animals.
# The test substances were dissolved in distilled water which contains 1% by volume of dimethylformamide and 1% by volume of Tween®20 (=polyoxyethylene(20) sorbitan monolaurate). One hour before the histamine injection, each animal received 2×10^-5 mol/kg of test substance, in each case administered orally in 0.5 ml of solution. A control group received only the solvent for comparison.
# The histamine-induced anaphylactoid reactions which manifested themselves by edema formation, swelling and exudation of blue dye are assessed 30 minutes after provocation by the histamine injection. This is carried out by visual determination of the extent of the exudation of blue dye at the sites of edema formation. With the aid of comparison scales, the percentage inhibition of the anaphylactoid reactions produced by the test substances is determined in comparison with the reactions of the control animals not treated with test substance.
# The results obtained with compounds of the formula I by the above test method are reproduced in the following table A. The example numbers given as identifiers for the compounds of formula I refer to the subsequent preparative examples.
row,Compound,inhibition in vivo at 20 µmol/kg
1,Cc1cc(-c2c(C)c3c(F)ccc4c3n2CC(CCN2CCN(c3ccccn3)CC2)O4)cc(C)c1O (centres unmarked) [Example 27],55%
2,COc1cc(-c2c(C)c3cccc4c3n2CC(CCC(=O)N2CCN(c3ccc(C)cn3)CC2)O4)ccc1O (centres unmarked) [Example 39],32%
3,COc1cc2c3c(c1)c(C)c(-c1cc(C)c(O)c(C)c1)n3CC(CCN1CCN(c3cc(C)ccn3)CC1)O2 (centres unmarked) [Example 43],32%
4,Cc1ccnc(N2CCN(C(=O)CCC3Cn4c(-c5ccc(O)cc5)c(C)c5cccc(c54)O3)CC2)c1 (centres unmarked) [Example 15],32%
5,Cc1ccnc(N2CCN(C(=O)CCC3Cn4c(-c5cc(C)c(O)c(C)c5)c(C)c5cccc(c54)O3)CC2)c1 (centres unmarked) [Example 25],30%
6,Cc1ccnc(N2CCN(CCC3Cn4c(-c5cc(C)c(O)c(C)c5)c(C)c5cc(F)cc(c54)O3)CC2)c1 (centres unmarked) [Example 42],36%
7,Cc1ccnc(N2CCN(CCC3Cn4c(-c5cc(C)c(O)c(C)c5)c(C)c5cc(O)cc(c54)O3)CC2)c1 (centres unmarked) [Example 44],37%
8,Cc1ccnc(N2CCN(CCCC3Cn4c(-c5cc(C)c(O)c(C)c5)c(C)c5c(F)ccc(c54)O3)CC2)c1 (centres unmarked) [Example 29],46%
